≈ marks a conversion by molar mass, not a printed value. Like-named read-outs stand apart in the source and are kept apart here.
What was measured:
3T3 cells = assay: Cell growth inhibition bioassay (sulforhodamine B); type: cell-based, mouse; details: Mus musculus, NIH3T3; 48 h, SRB; read-out: GI50 in indicated cell line: 3T3
Procedure, shortened: (§1)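 Cells were exposed to compound alongside matched solvent controls, then stained with sulforhodamine B. Percent growth inhibition was calculated from dye absorbance against the control.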

DU145 cells = assay: Cell growth inhibition bioassay (sulforhodamine B); type: cell-based, human; details: Homo sapiens, DU-145; 48 h, SRB; read-out: GI50 in indicated cell line: DU145
Procedure, shortened: (§2)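 Growth inhibition was measured colorimetrically with sulforhodamine B staining and expressed as percent inhibition relative to solvent-treated controls. Cell lines were human: MCF-7 breast adenocarcinoma, DU145 and PC3 prostate carcinoma/adenocarcinoma, H460 large cell lung cancer.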

H460 cells = assay: Cell growth inhibition bioassay (sulforhodamine B); type: cell-based, human; details: Homo sapiens, NCI-H460; 48 h, SRB; read-out: GI50 in indicated cell line: H460
Procedure, shortened: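 SRB colorimetric read-out; % growth inhibition vs solvent control. Human lines: MCF-7 (breast adenocarcinoma), DU145 (prostate carcinoma), PC3 (prostate adenocarcinoma), H460 (large cell lung cancer).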

HT-29 cells = assay: Cell growth inhibition bioassay (sulforhodamine B); type: cell-based, human; details: Homo sapiens, HT-29; 48 h, SRB; read-out: GI50 in indicated cell line: HT-29
Procedure, shortened: as §1

K562 cells = assay: Cell growth inhibition bioassay (sulforhodamine B); type: cell-based, human; details: Homo sapiens, K562; 48 h, SRB; read-out: GI50 in indicated cell line: K562
Procedure, shortened: as §1

M-14 cells = assay: Cell growth inhibition bioassay (sulforhodamine B); type: cell-based, human; details: Homo sapiens, M14; 48 h, SRB; read-out: GI50 in indicated cell line: M-14
Procedure, shortened: as §1

MCF-7 cells = assay: Cell growth inhibition bioassay (sulforhodamine B); type: cell-based, human; details: Homo sapiens, MCF7; 48 h, SRB; read-out: GI50 in indicated cell line: MCF-7
Procedure, shortened: as §2

VERO cells = assay: Cell growth inhibition bioassay (sulforhodamine B); type: cell-based, African Green Monkey; details: Chlorocebus sabaeus, Vero; 48 h, SRB; read-out: GI50 in indicated cell line: VERO
Procedure, shortened: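 Cytotoxicity is read by sulforhodamine B colorimetry following the Skehan protocol; values are growth inhibition relative to solvent-only wells.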

[1] = tested on: Trypanosoma cruzi (Tulahuen C4); assay: In vitro anti-T. cruzi activity (β-galactosidase CPRG colorimetric assay in VERO monolayer); type: cell-based; details: for Selectivity Index Lab B: IC50, VERO/IC50, T. cruzi; for IC50: Trypanosoma cruzi, TULAHUEN, Vero
M. tuberculosis H37Rv = assay: Conventional aerobic (MABA) culture assay, luminescence MIC; type: cell-based, Mycobacterium tuberculosis; details: for MIC: Mycobacterium tuberculosis, 168 h, aerobic, 7 days, H37Rv; for Selectivity Index H37Rv: VERO vs MABA MIC
[2] = Toxicity to peritoneal macrophages (Trypan Blue count); type: cell-based, BALB/C mouse; details: BALB/C, mouse, Cytotoxicity Macrophages IC50
[3] = tested on: axenic amastigotes of L. amazonensis (strain MHOM/BR/76/LTB-012); details: Table 8b
L. amazonensis = details: for Mean lesion size (mm) / Mean parasite quantification (per 10^6) in lesion per mg (±SD) / Mean lesion wt (mg) (±SD) / % Variation of lesion wt / % reduction of parasite burden in the lesion: Glucantime 33 mg Sb(v)/kg/day; for Mean lesion wt (mg) (±SD): BALB/c mice n=10; for % Variation of lesion wt / % reduction of parasite burden in the lesion: vs control
[4] = Cytotoxicity VERO cell (Table 6); details: African green monkey, VERO cells
[5] = tested on: axenic amastigotes of L. amazonensis (strain MHOM/BR/76/LTB-012); assay: microbe, parasite or virus in culture; details: Leishmania amazonensis
[6] = Cytotoxicity on VERO cells (MTT), anti-T. cruzi study; details: African green monkey, VERO cells, Cytotoxicity VERO Lab B, Lab B
L. braziliensis PER006 = assay: Activity against macrophages infected with Leishmania amastigotes; details: Leishmania braziliensis, Macrophage, read-out: IC50 L. braziliensis PER006
L. peruviana LCA08 = assay: as above; details: Leishmania peruviana, Macrophage, read-out: IC50 L. peruviana LCA08
Description: (§3) A cloned line of Leishmania amazonensis(strain MHOM/BR/76/LTB-012) was used in all experiments. Axenically grown amastigote forms of L. amazonensis were maintained by weekly subpassages in MAA/20 medium (Sereno and Lemesre, Antimicrobial Agents and Chemotherapy 41, 972-976 (1997)) at 32±1° C. in 25 cm^2 tissue culture flasks. L. peruviana (strain MHOM/PE/LCA08) and L. braziliensis (strainMHOM/PE/PER006) were maintained in the promastigote stage in a biphasic medium (blood agar with 0.89% NaCl, pH 7.4) at 24° C., with sub-passage every 3 to 4 days. Promastigotes (5×10^6 parasites) were then transferred to 25 cm2 tissue culture flasks containing 5 ml of M199 medium supplemented with 10% foetal bovine serum (FBS), pH 7.4. After 4 days, exponential phase promastigotes were centrifuged for 10 minutes at 1500 g and 4° C. The supernatant was discarded and replaced by fresh M199 medium supplemented with 20% FBS, pH 5.5. Axenic amastigotes transformation was then induced by increasing the temperature to 34° C. and incubating for 96 h (Teixeira et al., Parasitology Research 88, 963-968 (2002)).
(§4) Extracted cells were immediately deposited on sterile 4×4 mm cover glasses and placed in each well of a 96-well plate. Plates were incubated for 24 h at 37° C., 5% CO2 to allow cell adhesion (Castillo et al, Journal of Ethnopharmacology 112, 410-414 (2007)). Pre-warmed complete M199 medium was used twice to remove non-adherent cells. A neutral red method (Fautz et al., Mutation Research 253, 173-179 (1991)) was employed to determine cell concentration. Approximately 7×10^4 viable cells were deposited in each well for adhesion.
(§5) Infection of macrophages by amastigotes was determined as follows. […] Twelve hours after infection, a solution of the compounds to be tested was added to the cultures at various concentrations and maintained at 37° C. in 5% CO2 for a further forty-eight hours more. The plates were fixed with methanol and stained with 10% Giemsa stain. The percentage of infected macrophages was determined microscopically at 100 times magnification. The number of intracellular amastigotes was determined in 300 cells. Following Delorenzi et al. Antimicrobial Agents and Chemotherapy, 45, 1349-1354 (2001)) the percentage of infection rate (% IR) of each culture was calculated as follows: % IR=100−(infection rate of the treated culture/infection rate of the untreated culture)×100.
(§6) All experiments were performed in triplicate. ANOVA was used to test for statistical significance of differences (Epi-Info, Statview student program). The total parasite burden was calculated as a mean number of amastigotes per cells multiplied by the number of infected macrophages.

peritoneal macrophages = assay: Toxicity to peritoneal macrophages (Trypan Blue count); type: cell-based, BALB/C mouse; details: Mus musculus, Peritoneal macrophage, 48 h; Table 7; read-out: IC50 Macrophage
L. amazonensis Lma CL1 = assay: Activity against macrophages infected with Leishmania amastigotes; details: Leishmania amazonensis, Macrophage, 48 h, read-out: IC50 L. amazonensis Lma CL1
Description: as §3, §4, §5, §6

[7] = Lab A, read-out: T. cruzi IC50 Lab A
[8] = Lab B, read-out: T. cruzi IC50 Lab B
[9] = after 4 weeks treatment, intralesional, compounds 5 mg/kg/day
[10] = after 7 weeks treatment, intralesional, compounds 5 mg/kg/day

| SMILES | GI50 (3T3 cells) | GI50 (DU145 cells) | GI50 (H460 cells) | GI50 (HT-29 cells) | GI50 (K562 cells) | GI50 (M-14 cells) | GI50 (MCF-7 cells) | GI50 (VERO cells) | Selectivity Index Lab B ([1]; Lab B) | IC50 [1, 7] | IC50 [1, 8] | MIC (M. tuberculosis H37Rv) | Selectivity Index H37Rv (M. tuberculosis H37Rv) | IC50 at 48 h [2] | Selectivity Index [3] | IC50 [4] | IC50 ([5]; read-out: L. amazonensis IC50) | IC50 [6] | further results |
| --- | --- | --- | --- | --- | --- | --- | --- | --- | --- | --- | --- | --- | --- | --- | --- | --- | --- | --- | --- |
| CCC(CC)=NNc1ncnc2sc3c(c12)CCCC3 [II-48] | 1.4 µg/mL (≈ 4.85 µM) | 4.3 µg/mL (≈ 14.9 µM) | 4.4 µg/mL (≈ 15.3 µM) | 11.2 µg/mL (≈ 38.8 µM) | 3.3 µg/mL (≈ 11.4 µM) | 5.9 µg/mL (≈ 20.5 µM) | 4.4 µg/mL (≈ 15.3 µM) | 7.4 µg/mL (≈ 25.7 µM) | 1.0 | 4.8 µg/mL (≈ 16.6 µM) | 6 µg/mL (≈ 20.8 µM) | 46.2 µg/mL (≈ 160 µM) | 0.7 | 46.7 µM | 8.5 | 32.9 µg/mL (≈ 114 µM) | 5.5 µM | 6 µg/mL (≈ 20.8 µM) | Mean lesion size (mm) (L. amazonensis; [9]): 2.8 mm; Mean parasite quantification (per 10^6) in lesion per mg (±SD) (L. amazonensis; [9]): 0.60 (±0.44) amastigotes (×10^6)/mg; Mean lesion wt (mg) (±SD) (L. amazonensis; [9]): 38.2 (±11.4) mg; % Variation of lesion wt (L. amazonensis; [9]): 37%; % reduction of parasite burden in the lesion (L. amazonensis; [9]): 65%; Mean lesion size (mm) (L. amazonensis; [10]): 4.9 mm; Mean parasite quantification (per 10^6) in lesion per mg (±SD) (L. amazonensis; [10]): 1.53 (±0.18) amastigotes (×10^6)/mg; Mean lesion wt (mg) (±SD) (L. amazonensis; [10]): 85.0 (±4.5) mg; % Variation of lesion wt (L. amazonensis; [10]): 5%; % reduction of parasite burden in the lesion (L. amazonensis; [10]): 17%; IC50 (L. braziliensis PER006): 3.2 µg/mL; IC50 (L. peruviana LCA08): 2 µg/mL (≈ 6.93 µM) |
| Clc1ccccc1/C=N\Nc1ncnc2sc3c(c12)CCCC3 [II-29] | 30.2 µg/mL (≈ 88.1 µM) | 26.7 µg/mL (≈ 77.9 µM) | 21.6 µg/mL (≈ 63 µM) | 19.4 µg/mL (≈ 56.6 µM) | 6.8 µg/mL (≈ 19.8 µM) | > 62.5 µg/mL | 7.5 µg/mL (≈ 21.9 µM) | 9.9 µg/mL (≈ 28.9 µM) | 0.7 |  | 7.3 µg/mL (≈ 21.3 µM) | 42.6 µg/mL (≈ 124 µM) | 0.7 | 3.8 µM | 5.0 | 29.3 µg/mL (≈ 85.5 µM) | 0.8 µM | 5 µg/mL (≈ 14.6 µM) |  |
| C=CCOc1cc(/C=C/C(=O)c2c(O)cc(O)cc2OC)cc(OCC=C)c1Br [Compound I-42, (2E)-3-(3,5-Bis(2-propenyloxy)-4-bromophenyl)-1-(2,4-dihydroxy-6-methoxyphenyl)-2-propen-1-one] |  |  |  |  |  |  |  |  |  |  |  |  |  |  |  |  |  |  | IC50 (peritoneal macrophages): 11.5 µM; Reduction of parasite burden (column After 7 weeks, analyzed after 6 weeks treatment) (L. amazonensis; 5 mg/kg/day intralesional, after 6 weeks treatment (footnote d)): 8^d %; Lesion diameter (L. amazonensis; compounds 5 mg/kg/day, Glucantime 33 mg/kg/day, intralesional): 4.6 mm; Reduction of parasite burden After 4 weeks (L. amazonensis; compounds 5 mg/kg/day, Glucantime 33 mg/kg/day, intralesional, after 4 weeks): 9%; IC50 ([5]; 72 h, read-out: IC50 L. amazonensis): 1.1 µM; IC50 (L. amazonensis Lma CL1): 4.1 µM; IC50 (L. braziliensis PER006; 48 h): 14.4 µM |
| C(=N/Nc1ncnc2sc3c(c12)CCCC3)/c1ccc[nH]1 [II-19] | 0.7 µg/mL (≈ 2.35 µM) | 1.4 µg/mL (≈ 4.71 µM) | 0.5 µg/mL (≈ 1.68 µM) | 1.1 µg/mL (≈ 3.7 µM) | 0.6 µg/mL (≈ 2.02 µM) | 0.7 µg/mL (≈ 2.35 µM) | 0.1 µg/mL (≈ 0.336 µM) | 0.6 µg/mL (≈ 2.02 µM) | 0.1 | 0.6 µg/mL (≈ 2.02 µM) | 6.8 µg/mL (≈ 22.9 µM) | 6.2 µg/mL (≈ 20.8 µM) | 0.7 | 2.9 µM | 1.0 | 4 µg/mL (≈ 13.5 µM) | 3 µM | 1 µg/mL (≈ 3.36 µM) |  |
| Oc1ccc(/C=N\Nc2ncnc3sc4c(c23)CCCC4)cc1 [II-09] | 2.1 µg/mL (≈ 6.47 µM) | 6.8 µg/mL (≈ 21 µM) | 4.8 µg/mL (≈ 14.8 µM) | 6.3 µg/mL (≈ 19.4 µM) | 5.1 µg/mL (≈ 15.7 µM) | 5.6 µg/mL (≈ 17.3 µM) | 5.5 µg/mL (≈ 17 µM) | 6.8 µg/mL (≈ 21 µM) | 1.1 | 2.6 µg/mL (≈ 8.01 µM) | 3.7 µg/mL (≈ 11.4 µM) | 23.4 µg/mL (≈ 72.1 µM) | 0.6 | 57.8 µM | 4.3 | 14.6 µg/mL (≈ 45 µM) | 13.5 µM | 4 µg/mL (≈ 12.3 µM) |  |
| Brc1ccccc1/C=N\Nc1ncnc2sc3c(c12)CCCC3 [II-31] | 4.3 µg/mL (≈ 11.1 µM) | 2.8 µg/mL (≈ 7.23 µM) | 3 µg/mL (≈ 7.75 µM) | 3.1 µg/mL (≈ 8 µM) | 1.2 µg/mL (≈ 3.1 µM) | 6 µg/mL (≈ 15.5 µM) | 1.7 µg/mL (≈ 4.39 µM) | 2 µg/mL (≈ 5.16 µM) | 0.8 | 0.8 µg/mL (≈ 2.07 µM) | 3.6 µg/mL (≈ 9.29 µM) | 9.4 µg/mL (≈ 24.3 µM) | 0.8 | 2.9 µM | 5.8 | 7.7 µg/mL (≈ 19.9 µM) | 0.5 µM | 3 µg/mL (≈ 7.75 µM) |  |

— patent US9061984B2 (University of Louisville Research Foundation, Inc., priority 2008, dated 2015)
